Data published in US20230174488A1 (priority 2020, published 2023).

What follows are compounds tested against SARS-CoV-2 M^PRO (Severe acute respiratory syndrome coronavirus 2, UniProt P0DTD1) (assay: biochemical). Conditions: In vitro potency data; 30 min pre-incubation, 25 nM M^pro, 25 µM substrate; read-out: IC50.
Format: biochemical

**Q.** With `O=C(NC1CCC(F)(F)CC1)C(c1ccnnc1)N(C(=O)CCl)c1ccc(-c2ccns2)cc1` (racemic) [INSCoV-601J] as the compound, how does the IC50 read?
**A.** Its IC50 is 120 nM.

**Q.** How did the IC50 turn out when `O=C(NC1CCC(F)(F)CC1)[C@@H](c1cncnc1)N(C(=O)CCl)c1ccc(-c2ccccc2)cc1` [INSCoV-601L] was run?
**A.** Its IC50 is 300 nM.

**Q.** Which IC50 does the source give for `O=C(NC1CCC(F)(F)CC1)C(c1cnccn1)N(C(=O)CCl)c1ccc(-c2cncs2)cc1` (single isomer, unassigned) [INSCoV-601G(2), 2-Chloro-N-(2-((4,4-difluorocyclohexyl)amino)-2-oxo-1-(pyrazin-2-yl)ethyl)-N-(4-(thiazol-5-yl)phenyl)acetamide] here?
**A.** The IC50 was 270 nM.

**Q.** How did the IC50 turn out when `O=C(NC1CCC(F)(F)CC1)[C@@H](c1cncnc1)N(C(=O)[C@H](F)Cl)c1ccc(-c2ccno2)cc1` (single isomer, unassigned) [INSCoV-614A(1A), 2-Chloro-N-(2-((4,4-difluorocyclohexyl)amino)-2-oxo-1-(pyrimidin-5-yl)ethyl)-2-fluoro-N-(4-(isoxazol-5-yl)phenyl)acetamide] was run?
**A.** The IC50 was 6740 nM.

**Q.** Which IC50 does the source give for `O=C(NC1CCCCC1)C(c1cccnc1)N(C(=O)CCl)c1ccc(Br)cc1F` (centres unmarked) [INSCoV-507] here?
**A.** Its IC50 is 2130 nM.

**Q.** With `O=C(NC1CCCCC1)C(c1cnccn1)N(C(=O)CCl)c1ccc(-c2cnco2)cc1` (centres unmarked) [INSCoV-501L] as the compound, how does the IC50 read?
**A.** The IC50 was 400 nM.

**Q.** Which IC50 does the source give for `O=C(NC1CCCCC1)C(c1cccnc1)N(CCc1ccc(F)cc1)C(=O)CCl` (centres unmarked) [INSCoV-559, 2-Chloro-N-(2-(Cyclohexylamino)-2-Oxo-1-(Pyridin-3-yl)Ethyl)-N-(4-Fluorophenethyl)Acetamide] here?
**A.** The IC50 was 1080 nM.

**Q.** Which IC50 does the source give for `O=C(N[C@H]1CCOC1)C(c1cncnc1)N(C(=O)CCl)c1ccc(-c2cnco2)cc1` (some centres unmarked) [INSCoV-600C(1)] here?
**A.** The IC50 was 270 nM.

**Q.** Which IC50 does the source give for `O=C(NC1CCC(F)(F)CC1)[C@@H](c1cncnc1)N(CCc1cccc(F)c1)C(=O)C1CO1` (some centres unmarked) [INSCoV-600Q(2)] here?
**A.** Its IC50 is 2220 nM.

**Q.** Which IC50 does the source give for `Cc1cccc(CCN(C(=O)CCl)C(C(=O)NC2CCCCC2)c2cccnc2)c1` (centres unmarked) [INSCoV-503B] here?
**A.** The IC50 was 1000 nM.

**Q.** How did the IC50 turn out when `CCS(=O)(=O)N1CCC(NC(=O)C(c2cncnc2)N(C(=O)CCl)c2ccc(-c3cnco3)cc2)CC1` (centres unmarked) [INSCoV-501H(1)] was run?
**A.** The IC50 was 630 nM.

**Q.** With `N#Cc1cc(OC(F)(F)F)ccc1N(C(=O)CCl)C(C(=O)NC1CCC(F)(F)CC1)c1cncnc1` (single isomer, unassigned) [INSCoV-517A(1B), 2-Chloro-N-(2-cyano-4-(trifluoromethoxy)phenyl)-N-(2-((4,4-difluorocyclohexyl)amino)-2-oxo-1-(pyrimidin-5-yl)ethyl)acetamide] as the compound, how does the IC50 read?
**A.** The IC50 was 3250 nM.

**Q.** How did the IC50 turn out when `O=C(NC1CCC(F)(F)CC1)[C@H](c1cncnc1)N(C(=O)[C@H](F)Cl)c1ccc(-c2cncs2)cc1` (single isomer, unassigned) [INSCoV-614(2B), 2-Chloro-N-(2-((4,4-difluorocyclohexyl)amino)-2-oxo-1-(pyrimidin-5-yl)ethyl)-2-fluoro-N-(4-(thiazol-5-yl)phenyl)acetamide] was run?
**A.** The IC50 was 1700 nM.

**Q.** How did the IC50 turn out when `CC(C)(C)c1ccc(N(C(=O)CCl)C(C(=O)NC2CCCCC2)c2cnccn2)cc1` (centres unmarked) [INSCoV-538, N-(4-(Tert-Butyl)Phenyl)-2-Chloro-N-(2-(Cyclohexylamino)-2-Oxo-1-(Pyrazin-2-yl)Ethyl)Acetamide] was run?
**A.** Its IC50 is 280 nM.

**Q.** For `O=C(NC1CC2(C1)CS(=O)(=O)C2)C(c1cncnc1)N(C(=O)CCl)c1ccc(-c2cnco2)cc1` (centres unmarked) [INSCoV-600H], which IC50 is on record?
**A.** The IC50 was 660 nM.

**Q.** For `O=C(NC1CCC(F)(F)CC1)C(c1cncnc1)N(C(=O)C1CO1)c1ccc(-c2ccno2)cc1` (centres unmarked) [INSCoV-600Y, N-(2-((4,4-Difluorocyclohexyl)Amino)-2-Oxo-1-(Pyrimidin-5-yl)Ethyl)-N-(4-(Isoxazol-5-yl)Phenyl)Oxirane-2-Carboxamide], which IC50 is on record?
**A.** The IC50 was 1990 nM.

**Q.** `O=C(N[C@H]1CCOC1)[C@H](c1cncnc1)N(C(=O)CCl)c1ccc(-c2cnco2)cc1` [INSCoV-600C(1B)] was tested. Which IC50 did it give?
**A.** The IC50 was 310 nM.

**Q.** With `O=C(NC1CCC(F)(F)CC1)C(c1cncnc1)N(C(=O)[C@H]1CO1)c1ccc(-c2cnco2)cc1` (some centres unmarked) [INSCoV-600R(1)] as the compound, how does the IC50 read?
**A.** The IC50 was 19900 nM.

**Q.** For `O=C(NC1CCCCC1)C(c1cccnc1)N(Cc1ccc(F)cc1)C(=O)CCl` (centres unmarked) [INSCoV-504], which IC50 is on record?
**A.** Its IC50 is 16300 nM.

**Q.** With `O=C(NC1CCC(F)(F)CC1)C(c1cncnc1)N(C(=O)CCl)c1ccc(-c2cnco2)cc1` (centres unmarked) [INSCoV-501I, 2-Chloro-N-(2-((4,4-difluorocyclohexyl)amino)-2-oxo-1-(pyrimidin-5-yl)ethyl)-N-(4-(oxazol-5-yl)phenyl)acetamide] as the compound, how does the IC50 read?
**A.** The IC50 was 390 nM.

**Q.** With `O=C(NC1CCS(=O)(=O)CC1)C(c1cnccn1)N(C(=O)CCl)c1ccc(-c2cnco2)cc1` (centres unmarked) [INSCoV-501M, 2-Chloro-N-(2-((1,1-Dioxidotetrahydro-2H-Thiopyran-4-yl)Amino)-2-Oxo-1-(Pyrazin-2-yl)Ethyl)-N-(4-(Oxazol-5-yl)Phenyl)Acetamide] as the compound, how does the IC50 read?
**A.** Its IC50 is 450 nM.

**Q.** For `Cc1cc(F)cc(F)c1NC(=O)C(c1cncnc1)N(C(=O)CCl)c1ccc(-c2cnco2)cc1` (centres unmarked) [INSCoV-600N], which IC50 is on record?
**A.** The IC50 was 1060 nM.

**Q.** With `O=C(NC1CCCCC1)C(c1cccnc1)N(CCc1c[nH]c2ccncc12)C(=O)CCl` (centres unmarked) [INSCoV-516] as the compound, how does the IC50 read?
**A.** The IC50 was 1180 nM.

**Q.** How did the IC50 turn out when `CC(C)(C)c1ccc(N(C(=O)CCl)C(C(=O)NC2CCCCC2)c2ccnnc2)cc1` (centres unmarked) [INSCoV-537, N-(4-(Tert-Butyl)Phenyl)-2-Chloro-N-(2-(Cyclohexylamino)-2-Oxo-1-(Pyridazin-4-yl)Ethyl)Acetamide] was run?
**A.** Its IC50 is 420 nM.

**Q.** `O=C(NCCc1ccccc1)C(c1cncnc1)N(C(=O)CCl)c1ccc(-c2cnco2)cc1` (centres unmarked) [INSCoV-501E] was tested. Which IC50 did it give?
**A.** Its IC50 is 600 nM.

**Q.** Which IC50 does the source give for `N#Cc1cc(OC(F)(F)F)ccc1N(C(=O)C(F)Cl)C(C(=O)NC1CCC(F)(F)CC1)c1cncnc1` (single isomer, unassigned) [INSCoV-517C(3), 2-Chloro-N-(2-cyano-4-(trifluoromethoxy)phenyl)-N-(2-((4,4-difluorocyclohexyl)amino)-2-oxo-1-(pyrimidin-5-yl)ethyl)-2-fluoroacetamide] here?
**A.** The IC50 was 70 nM.

**Q.** How did the IC50 turn out when `O=C(NC1CCC(F)(F)CC1)[C@@H](c1cncnc1)N(C(=O)[C@@H]1CO1)c1ccc(-c2cnco2)cc1` [INSCoV-600R(2B)] was run?
**A.** Its IC50 is greater than 25000 nM.

**Q.** `N#Cc1cc(OC(F)(F)F)ccc1N(C(=O)[C@H](F)Cl)[C@@H](C(=O)NC1CCC(F)(F)CC1)c1cncnc1` (single isomer, unassigned) [INSCoV-517C(2), 2-Chloro-N-(2-cyano-4-(trifluoromethoxy)phenyl)-N-(2-((4,4-difluorocyclohexyl)amino)-2-oxo-1-(pyrimidin-5-yl)ethyl)-2-fluoroacetamide] was tested. Which IC50 did it give?
**A.** The IC50 was 11400 nM.

**Q.** For `CC(C)c1cc(F)c(NC(=O)[C@@H](c2cncnc2)N(C(=O)CCl)c2ccc(-c3ccns3)cc2)c(F)c1` [INSCoV-601O], which IC50 is on record?
**A.** The IC50 was 3060 nM.

**Q.** For `O=C(NC1CCOCC1)C(c1cnccn1)N(C(=O)CCl)c1ccc(-c2cnco2)cc1` (centres unmarked) [INSCoV-600A(3), 2-Chloro-N-(4-(Oxazol-5-yl)Phenyl)-N-(2-oxo-1-(Pyrazin-2-yl)-2-((Tetrahydro-2H-Pyran-4-yl)Amino)Ethyl)Acetamide], which IC50 is on record?
**A.** Its IC50 is 410 nM.

**Q.** How did the IC50 turn out when `O=C(NC1CCC(F)(F)CC1)C(c1cncnc1)N(C(=O)CCl)c1ccc(-c2ccno2)cc1` (single isomer, unassigned) [INSCoV-600J(2), 2-Chloro-N-(2-((4,4-difluorocyclohexyl)amino)-2-oxo-1-(pyrimidin-5-yl)ethyl)-N-(4-(isoxazol-5-yl)phenyl)acetamide] was run?
**A.** Its IC50 is 530 nM.

**Q.** Which IC50 does the source give for `CN(C)C(=O)C1CCCC(NC(=O)C(c2cncnc2)N(C(=O)CCl)c2ccc(-c3cnco3)cc2)C1` (centres unmarked) [INSCoV-601CA] here?
**A.** The IC50 was 1150 nM.
